SMILES strings stand for the structures. pEC50: −log10 of the molar value. Structures can show the parent of a compound that is named as a salt.

The subject of one test is HIV-1 NL4-3 strain. Briefly: Evaluation of antiviral activity: acute infection system of MT-4 cell with HIV-1 NL4-3 strain. The class given is cell-based. The conditions noted are these: Human immunodeficiency virus 1, NL43, MT4, 120 h, MT-4 cells infected with HIV-1 NL4-3 strain (MOI 0.05), cultured 5 days, Cell Titer-Glo; read-out: antiviral activity (EC50).
With `CN1C[C@]2(C[C@H](O)C2)n2cc(C(=O)NCc3cccc(Cl)c3F)c(=O)c(O)c2C1=O` [Example S27, N-(3-chloro-2-fluorobenzyl)- cis-3,9′-dihydroxy-2′-methyl-1′,8′-dioxo-1′,2′,3′,8′-tetrahydrospiro[cyclobutane-1,4′-pyrido[1,2-a]pyrazine]-7′-carboxamide hydrochloride], the pEC50 is 7.85.

With `CCCO[C@H]1C[C@@]2(CN(C)C(=O)c3c(O)c(=O)c(C(=O)NCc4cccc(Cl)c4F)cn32)C1` [Example S42, N-(3-chloro-2-fluorobenzyl)-9′-hydroxy-2′-methyl-1′,8′-dioxo-trans-3-propoxy-1′,2′,3′,8′-tetrahydrospiro[cyclobutane-1,4′-pyrido[1,2-a]pyrazine]-7′-carboxamide hydrochloride], the pEC50 is 8.37.

Regarding `CO[C@H]1C[C@@]2(Cn3cc(C(=O)NCc4ccc(F)cc4F)c(=O)c(O)c3C(=O)N2C(C)C)C1` [Example S52, N-(2,4-difluorobenzyl)-9′-hydroxy-2′-isopropyl-trans-3-methoxy-1′,8′-dioxo-1′,2′,4′,8′-tetrahydrospiro[cyclobutane-1,3′-pyrido[1,2-a]pyrazine]-7′-carboxamide hydrochloride], the pEC50 was 8.46.

Turning to `CN(C)C(=O)[C@@H]1C[C@]12CN(C1CC1)C(=O)c1c(O)c(=O)c(C(=O)NCc3cccc(Cl)c3F)cn12` [Example T33, (1R,2R)-N^7′-(3-chloro-2-fluorobenzyl)-2′-cyclopropyl-9′-hydroxy-N^2,N^2-dimethyl-1′,8′-dioxo-1′,2′,3′,8′-tetrahydrospiro[cyclopropane-1,4′-pyrido[1,2-a]pyrazine]-2,7′-dicarboxamide], the pEC50 is 8.48.

Regarding `COC[C@H]1C[C@@]2(CN(C)C(=O)c3c(O)c(=O)c(C(=O)NCc4cccc(Cl)c4F)cn32)C1` [Example 27, N-(3-chloro-2-fluorobenzyl)-9′-hydroxy-trans-3-(methoxymethyl)-2′-methyl-1′,8′-dioxo-1′,2′,3′,8′-tetrahydrospiro[cyclobutane-1,4′-pyrido[1,2-a]pyrazine]-7′-carboxamide], the pEC50 was 8.82.

Consider `CC(C)N1C(=O)c2c(O)c(=O)c(C(=O)NCc3ccc(F)cc3F)cn2C[C@]12C[C@H](O)C2` [Example S55, N-(2,4-difluorobenzyl)-cis-3,9′-dihydroxy-2′-isopropyl-1′,8′-dioxo-1′,2′,4′,8′-tetrahydrospiro[cyclobutane-1,3′-pyrido[1,2-a]pyrazine]-7′-carboxamide hydrochloride], for which the pEC50 was 7.48.

For the compound `CC(C)O[C@H]1C[C@@]2(CN(C)C(=O)c3c(O)c(=O)c(C(=O)NCc4cccc(Cl)c4F)cn32)C1` [Example S40, N-(3-chloro-2-fluorobenzyl)-9′-hydroxy-trans-3-isopropoxy-2′-methyl-1′-8′-dioxo-1′,2′,3′,8′-tetrahydrospiro[cyclobutane-1,4′-pyrido[1,2-a]pyrazine]-7′-carboxamide hydrochloride], the negative logarithm of the EC50 (pEC50) is 8.64.

With `CCN1C(=O)c2c(O)c(=O)c(C(=O)NCc3cccc(Cl)c3F)cn2C[C@]12C[C@H](COC)C2` [Example S61, N-(3-chloro-2-fluorobenzyl)-2′-ethyl-9′-hydroxy-cis-3-(methoxymethyl)-1′,8′-dioxo-1′,2′,4′,8′-tetrahydrospiro[cyclobutane-1,3′-pyrido[1,2-a]pyrazine]-7′-carboxamide hydrochloride], the negative-log EC50 (pEC50) was 8.29.

Turning to `CC(C)N1C[C@]2(C[C@H](CO)C2)n2cc(C(=O)NCc3ccc(F)cc3F)c(=O)c(O)c2C1=O` [Example S22, N-(2,4-difluorobenzyl)-9′-hydroxy-cis-3-(hydroxymethyl)-2′-isopropyl-1′,8′-dioxo-1′,2′,3′,8′-tetrahydrospiro[cyclobutane-1,4′-pyrido[1,2-a]pyrazine]-7′-carboxamide hydrobromide], the negative-log EC50 (pEC50) was 8.30.

The test is the same for the next values; noted with them: Human immunodeficiency virus 1, NL43, MT4, 120 h, antiviral activity; MT-4 cells infected with HIV-1 NL4-3 (MOI 0.05), 5 days culture, Cell Titer-Glo luminescence.
As to `CC(C)N1C[C@@]2(C[C@H]2CO)n2cc(C(=O)NCc3ccc(F)cc3F)c(=O)c(O)c2C1=O` [Example 15, (1S,2R)—N-(2,4-difluorobenzyl)-9′-hydroxy-2-(hydroxymethyl)-2′-isopropyl-1′,8′-dioxo-1′,2′,3′,8′-tetrahydrospiro[cyclopropane-1,4′-pyrido[1,2-a]pyrazine]-7′-carboxamide hydrochloride], the negative logarithm of the EC50 (pEC50) was 8.14.

`CC(C)N1C[C@]2(C[C@H]2CS(C)(=O)=O)n2cc(C(=O)NCc3cccc(Cl)c3F)c(=O)c(O)c2C1=O` [Example 21, (1R,2R)—N-(3-chloro-2-fluorobenzyl)-9′-hydroxy-2′-isopropyl-2-(methylsulfonylmethyl)-1′,8′-dioxo-1′,2′,3′,8′-tetrahydrospiro[cyclopropane-1,4′-pyrido[1,2-a]pyrazine]-7′-carboxamide hydrochloride] had a negative logarithm of the EC50 (pEC50) of 7.32.

The same test, now with this note: Human immunodeficiency virus 1, NL43, MT4, 120 h, antiviral activity; MT-4 cells infected with HIV-1 NL4-3 (MOI 0.05), 5 days culture, Cell Titer-Glo luminescence; read-out: EC50.
Take `CO[C@H]1C[C@]2(CN(C)C(=O)c3c(O)c(=O)c(C(=O)NCc4ccc(F)cc4F)cn32)C1` [Example S14, N-(2,4-difluorobenzyl)-9′-hydroxy-cis-3-methoxy-2′-methyl-1′,8′-dioxo-1′,2′,3′,8′-tetrahydrospiro[cyclobutane-1,4′-pyrido[1,2-a]pyrazine]-7′-carboxamide hydrochloride]: the pEC50 is 8.41.

As for `COC[C@H]1C[C@]12CN(C(C)C)C(=O)c1c(O)c(=O)c(C(=O)NCc3ccc(F)cc3F)cn12` [Example 14, (1R,2S)—N-(2,4-difluorobenzyl)-9′-hydroxy-2′-isopropyl-2-(methoxymethyl)-1′,8′-dioxo-1′,2′,3′,8′-tetrahydrospiro[cyclopropane-1,4′-pyrido[1,2-a]pyrazine]-7′-carboxamide], the negative logarithm of the EC50 (pEC50) was 8.04.

Take `CC(C)N1CC2(CC(O)C2)n2cc(C(=O)NCc3ccc(F)cc3F)c(=O)c(O)c2C1=O` (single isomer, unassigned) [Example S3, N-(2,4-difluorobenzyl)- trans-3,9′-dihydroxy-2′-isopropyl-1′,8′-dioxo-1′,2′,3′,8′-tetrahydrospiro[cyclobutane-1,4′-pyrido[1,2-a]pyrazine]-7′-carboxamide hydrobromide]: the pEC50 is 7.96.

Regarding `CCN1C[C@]2(C[C@H](OCc3ccccc3)C2)n2cc(C(=O)NCc3ccc(F)cc3F)c(=O)c(O)c2C1=O` [Example S16, cis-3-(benzyloxy)-N-(2,4-difluorobenzyl)-2′-ethyl-9′-hydroxy-1′,8′-dioxo-1′,2′,3′,8′-tetrahydrospiro[cyclobutane-1,4′-pyrido[1,2-a]pyrazine]-7′-carboxamide hydrochloride], the pEC50 was 8.11.

Regarding `COC[C@@H]1C[C@@]12CN(C(C)C)C(=O)c1c(O)c(=O)c(C(=O)NCc3ccc(F)cc3F)cn12` [Example 16, (1S,2R)—N-(2,4-difluorobenzyl)-9′-hydroxy-2′-isopropyl-2-(methoxymethyl)-1′,8′-dioxo-1′,2′,3′,8′-tetrahydrospiro[cyclopropane-1,4′-pyrido[1,2-a]pyrazine]-7′-carboxamide], the pEC50 is 8.21.

The test is the same for the next values; noted with them: Human immunodeficiency virus 1, NL43, MT4, 120 h, read-out: antiviral activity (EC50), MT-4 cells infected with HIV-1 NL4-3 strain (MOI 0.05), cultured 5 days, Cell Titer-Glo.
On to `CCN1C[C@]2(C[C@H]2COC)n2cc(C(=O)NCc3cccc(Cl)c3F)c(=O)c(O)c2C1=O` [Example T20, (1R,2R)-N-(3-chloro-2-fluorobenzyl)-2′-ethyl-9′-hydroxy-2-(methoxymethyl)-1′,8′-dioxo-1′,2′,3′,8′-tetrahydrospiro[cyclopropane-1,4′-pyrido[1,2-a]pyrazine]-7′-carboxamide hydrochloride], for which the pEC50 is 8.46.

As to `CC(C)N1C[C@]2(C[C@H]2CO)n2cc(C(=O)NCc3cccc(Cl)c3F)c(=O)c(O)c2C1=O` [Example T5, (1R,2R)-N-(3-chloro-2-fluorobenzyl)-9′-hydroxy-2-(hydroxymethyl)-2′-isopropyl-1′,8′-dioxo-1′,2′,3′,8′-tetrahydrospiro[cyclopropane-1,4′-pyrido[1,2-a]pyrazine]-7′-carboxamide hydrochloride], the pEC50 was 8.40.

For `CCN1C[C@@]2(C[C@@H]2CO)n2cc(C(=O)NCc3ccc(F)cc3F)c(=O)c(O)c2C1=O` [Example T1, (1S,2S)-N-(2,4-difluorobenzyl)-2′-ethyl-9′-hydroxy-2-(hydroxymethyl)-1′,8′-dioxo-1′,2′,3′,8′-tetrahydrospiro[cyclopropane-1,4′-pyrido[1,2-a]pyrazine]-7′-carboxamide hydrochloride], the negative logarithm of the EC50 (pEC50) was 7.74.

Consider `CN1C[C@@]2(C[C@@H]2CO)n2cc(C(=O)NCc3cccc(Cl)c3F)c(=O)c(O)c2C1=O` [Example T15, (1S,2S)-N-(3-chloro-2-fluorobenzyl)-9′-hydroxy-2-(hydroxymethyl)-2′-methyl-1′,8′-dioxo-1′,2′,3′,8′-tetrahydrospiro[cyclopropane-1,4′-pyrido[1,2-a]pyrazine]-7′-carboxamide hydrochloride], for which the negative-log EC50 (pEC50) was 7.70.

For `CCN1C(=O)c2c(O)c(=O)c(C(=O)NCc3cccc(Cl)c3F)cn2C[C@]12C[C@H]2CO` [Example T46, (1R,2R)-N-(3-chloro-2-fluorobenzyl)-2′-ethyl-9′-hydroxy-2-(hydroxymethyl)-1′,8′-dioxo-1′,2′,4′,8′-tetrahydrospiro[cyclopropane-1,3′-pyrido[1,2-a]pyrazine]-7′-carboxamide hydrochloride], the negative-log EC50 (pEC50) is 8.47.

Staying with this test, now noted: Human immunodeficiency virus 1, NL43, MT4, 120 h; read-out: antiviral activity (EC50).
In the case of `CO[C@H]1C[C@]2(CN(C)C(=O)c3c(O)c(=O)c(C(=O)NCc4cccc(Cl)c4F)cn32)C1` [Example 25, Monopotassium 7′-(3-chloro-2-fluorobenzylcarbamoyl)-cis-3-methoxy-2′-methyl-1′,8′-dioxo-1′,2′,3′,8′-tetrahydrospiro[cyclobutane-1,4′-pyrido[1,2-a]pyrazin]-9′-olate], the negative logarithm of the EC50 (pEC50) was 8.68.

The pEC50 is the negative decadic logarithm of the EC50, by convention in mol/L.
